# Entries after “also recorded” stand apart in the source; their conditions may differ. Like-named read-outs stand apart in the source and are kept apart here. Numbered stars: 1 amine (or outer) side, 2 acyl side, 3 side chain; on linkers, the order of the positions; unused ones are H or OH. Bridge positions count the residues as written; N and C are the ends. Side chains are listed from the residue outwards. Peptide text beside a SMILES is read from it. * marks the point of attachment. X1 = C/C(=N\O)C(C)(C)NCCC(CCNC(C)(C)/C(C)=N/O)CCN*; Glutaryl = O=C(CCCC(=O)[*:2])[*:1]; X2 = NC(=O)COCC(=O)NCCOCCOCCOCCN*
# Assays:
# [1] = tested on: fibrogenic livers in BDL model; assay: Liver uptake in BDL vs sham rats at 15 days post-op, vs negative control; assay type: in vivo, rat; conditions: one hour post-injection
# Procedure: (§1) On the appropriate day post surgery BDL and sham animals were removed and put under isoflurane anaesthesia, then each animal was injected with 0.3 ml intravenously (i.v.) via tail vein (˜3MBq). At the appropriate time point post-injection of the test item, each animal was re-anaesthetised with isoflurane, sacrificed by cervical dislocation weighed and the weight recorded via a barcode scanning system. Each animal was dissected and the following organs and tissues were removed and counted using BASIL counter protocol 40 or manual counting:
# The BDL and sham animal models were set up as described in Example 3. At 15 days post-operatively, one of Compound 3, Compound 8 or a negative control was administered to each animal and liver uptake assessed as described in Example 3.
# [2] = Biodistribution in BDL rats with and without excess cold compound; assay type: in vivo; conditions: male, Sprague Dawley, rat, iv, total radioactivity, BDL rats, 15 days post-op, 1 hour post-injection; for dose excreted at 1 h: bile and urine
# Procedure: as §1
# The recorded activity in a whole organ (e.g., liver) was corrected for background radioactivity and for radioactive decay and the biodistribution of radioactivity calculated by reference to Formula I:
# [formula] where: • A=counts per second measured in organ • B=total counts per second measured in all samples (excluding the injection site)
# The percentage of injected radioactivity in the weighed tissue samples (e.g., blood) was calculated to give % i.d. in the entire tissue by reference to Formula 2:
# [formula] where: • Zs=counts per second in sample • Ws=weight of sample in grams • Wb=weight of animal in grams immediately after sacrifice • B=total counts per second measured in all the samples (excluding the injection site) • F=tissue specific factor representing the mass of the tissue as a proportion of the total body weight of the animal
# The biodistribution of radioactivity was investigated in 15 days post-operatively in BDL and sham-operated male Sprague Dawley rats (procedures described in Example 3) 1 hour following of intravenous injection via tail vein of ˜3 MBq of Compound 8, both before and after addition of 1:100 and 1:10,000 fold excess of cold Compound 8. At the appropriate time point post-injection of the test Item, each animal was re-anaesthetised with isoflurane, sacrificed by cervical dislocation and weighed. Each animal was dissected and organs and tissues (see Tables 5 and 6 below) were removed and counted using BASIL counter protocol 40 or manual counting.
compound,measurement,setting,value
C/C(=N\O)C(C)(C)NCCC(CCNC(=O)CCCC(=O)NCCCC[C@@H]1NC(=O)CSC[C@@H](C(=O)NCCOCCOCCOCCNC(=O)COCC(N)=O)NC(=O)[C@H](Cc2ccccc2)NC(=O)[C@@H]2CSSC[C@H](NC1=O)C(=O)N[C@@H](CCCNC(=N)N)C(=O)NCC(=O)N[C@@H](CC(=O)O)C(=O)N2)CCNC(C)(C)/C(C)=N/O (stereo partly shown) [Compound 8] ({CH2CO}-K([Glutaryl-X1])CRGDCFC-X2; disulfide 2-6; thioether N-8),Liver retention/uptake in BDL compared to sham animals (in words),[1],significantly higher liver uptake; also recorded: significantly retained
same,dose excreted at 1 h,"[2]; 3 MBq, 10K-fold excess cold Compound 8",41.6%
same,dose excreted at 1 h,"[2]; 3 MBq, 100-fold excess cold Compound 8",38.3%
same,dose excreted at 1 h,"[2]; 3 MBq, no excess",41%
same,tissue uptake dose at 1 h,"[2]; blood, 10K-fold excess cold Compound 8, read-out: Activity in Blood, Mean",1.6 %ID
same,tissue uptake dose at 1 h,"[2]; blood, 100-fold excess cold Compound 8, read-out: Activity in Blood, Mean",1.61 %ID
same,tissue uptake dose at 1 h,"[2]; blood, no excess, read-out: Activity in Blood, Mean",1.47 %ID
same,tissue uptake dose at 1 h,"[2]; bone, 10K-fold excess cold Compound 8, read-out: Activity in Bone, Mean",3.18 %ID
same,tissue uptake dose at 1 h,"[2]; bone, 100-fold excess cold Compound 8, read-out: Activity in Bone, Mean",2.97 %ID
same,tissue uptake dose at 1 h,"[2]; bone, no excess, read-out: Activity in Bone, Mean",3.02 %ID
same,tissue uptake dose at 1 h,"[2]; carcass, 10K-fold excess cold Compound 8, read-out: Activity in Carcass, Mean",6.14 %ID
same,tissue uptake dose at 1 h,"[2]; carcass, 100-fold excess cold Compound 8, read-out: Activity in Carcass, Mean",6.47 %ID
same,tissue uptake dose at 1 h,"[2]; carcass, no excess, read-out: Activity in Carcass, Mean",4.36 %ID
same,tissue uptake dose at 1 h,"[2]; heart, 10K-fold excess cold Compound 8, read-out: Activity in Heart, Mean",0.14 %ID
same,tissue uptake dose at 1 h,"[2]; heart, 100-fold excess cold Compound 8, read-out: Activity in Heart, Mean",0.13 %ID
same,tissue uptake dose at 1 h,"[2]; heart, no excess, read-out: Activity in Heart, Mean",0.13 %ID
same,tissue uptake dose at 1 h,"[2]; injection site, 10K-fold excess cold Compound 8, read-out: Activity in Injection Site, Mean",1.68 %ID
same,tissue uptake dose at 1 h,"[2]; injection site, 100-fold excess cold Compound 8, read-out: Activity in Injection Site, Mean",1.75 %ID
same,tissue uptake dose at 1 h,"[2]; injection site, no excess, read-out: Activity in Injection Site, Mean",1.32 %ID
same,tissue uptake dose at 1 h,"[2]; kidneys, 3 MBq, 10K-fold excess cold Compound 8, read-out: Activity in Kidneys, Mean",3.61 %ID
same,tissue uptake dose at 1 h,"[2]; kidneys, 3 MBq, 100-fold excess cold Compound 8, read-out: Activity in Kidneys, Mean",4.2 %ID
same,tissue uptake dose at 1 h,"[2]; kidneys, no excess, read-out: Activity in Kidneys, Mean",3.78 %ID
same,tissue uptake dose at 1 h,"[2]; liver, 10K-fold excess cold Compound 8, read-out: Activity in Liver, Mean",9.81 %ID
same,tissue uptake dose at 1 h,"[2]; liver, 100-fold excess cold Compound 8, read-out: Activity in Liver, Mean",16.1 %ID
same,tissue uptake dose at 1 h,"[2]; liver, no excess, read-out: Activity in Liver, Mean",12.7 %ID
same,tissue uptake dose at 1 h,"[2]; lung, 10K-fold excess cold Compound 8, read-out: Activity in Lung, Mean",0.5 %ID
same,tissue uptake dose at 1 h,"[2]; lung, 100-fold excess cold Compound 8, read-out: Activity in Lung, Mean",0.5 %ID
same,tissue uptake dose at 1 h,"[2]; lung, no excess, read-out: Activity in Lung, Mean",0.43 %ID
same,tissue uptake dose at 1 h,"[2]; muscle, 10K-fold excess cold Compound 8, read-out: Activity in Muscle, Mean",9.61 %ID
same,tissue uptake dose at 1 h,"[2]; muscle, 100-fold excess cold Compound 8, read-out: Activity in Muscle, Mean",8.76 %ID
same,tissue uptake dose at 1 h,"[2]; muscle, no excess, read-out: Activity in Muscle, Mean",10.8 %ID
same,tissue uptake dose at 1 h,"[2]; skin, 10K-fold excess cold Compound 8, read-out: Activity in Skin, Mean",13 %ID
same,tissue uptake dose at 1 h,"[2]; skin, 100-fold excess cold Compound 8, read-out: Activity in Skin, Mean",12 %ID
same,tissue uptake dose at 1 h,"[2]; skin, no excess, read-out: Activity in Skin, Mean",12.6 %ID
same,tissue uptake dose at 1 h,"[2]; small and large intestine, 10K-fold excess cold Compound 8, read-out: Activity in Small & Large Intestine, Mean",8.58 %ID
same,tissue uptake dose at 1 h,"[2]; small and large intestine, 100-fold excess cold Compound 8, read-out: Activity in Small & Large Intestine, Mean",7.41 %ID
same,tissue uptake dose at 1 h,"[2]; small and large intestine, no excess, read-out: Activity in Small & Large Intestine, Mean",8.32 %ID
same,tissue uptake dose at 1 h,"[2]; spleen, 10K-fold excess cold Compound 8, read-out: Activity in Spleen, Mean",0.52 %ID
same,tissue uptake dose at 1 h,"[2]; spleen, 100-fold excess cold Compound 8, read-out: Activity in Spleen, Mean",0.57 %ID
same,tissue uptake dose at 1 h,"[2]; spleen, no excess, read-out: Activity in Spleen, Mean",0.51 %ID
same,tissue uptake dose at 1 h,"[2]; stomach, 10K-fold excess cold Compound 8, read-out: Activity in Stomach, Mean",1.69 %ID
same,tissue uptake dose at 1 h,"[2]; stomach, 100-fold excess cold Compound 8, read-out: Activity in Stomach, Mean",0.96 %ID
same,tissue uptake dose at 1 h,"[2]; stomach, no excess, read-out: Activity in Stomach, Mean",0.89 %ID
same,tissue uptake dose at 1 h,"[2]; thyroid, 10K-fold excess cold Compound 8, read-out: Activity in Thyroid, Mean",0.06 %ID
same,tissue uptake dose at 1 h,"[2]; thyroid, 100-fold excess cold Compound 8, read-out: Activity in Thyroid, Mean",0.04 %ID
same,tissue uptake dose at 1 h,"[2]; thyroid, no excess, read-out: Activity in Thyroid, Mean",0.04 %ID

# Reference: patent US8834843B2, “Imaging method” (GE Healthcare Limited, priority 2007, dated 2014)
